Reference: US6143780A, “N-arylmethylthioanilide compounds useful for the inhibition of the replication of HIV” (Uniroyal Chemical Company, Inc., priority 1999, dated 2000)
In brackets after ≈: the same amount, converted by molar mass. Several values for one entry are separate records, joined by “and”; a condition that tells them apart may be missing. Identical values can stand only once. Like-named read-outs stand apart in the source and are kept apart here.

Assays:
Assay type in all cases: cell-based
HIV-1/184-Ile = assay: inhibition of syncytium formation in CEM cells, HIV-1 RT mutant 184-Ile; conditions: Human immunodeficiency virus 1, CCRF-CEM, 96 h, read-out: EC50 184-IIe
From the text: (§1) CEM cells were obtained from the American Tissue Cell Culture Collection (Rockville, Md.) . HIV-1 (IIIB) was originally obtained from the culture supernatant of persistently HIV-1-infected H9 cells and was provided by R. C. Gallo and M. Popovic (National Cancer Institute, National Institutes of Health, Bethesda, Md.).
(§2) The selection and characterization of the HIV-1 RT mutant strains were done as follows: HIV-1/100-Ile ("100-Ile") was selected for resistance against TIBO R82150 as described in Balzarini et al, Virology 192: 246-253 (1993); HIV-1/103-Asn ("103-Asn") was selected for resistance against TIBO R82913 as described in Balzarini et al, Virology 192: 246-253 (1993); HIV-1/106-Ala ("106-Ala") was selected for resistance against nevirapine as described in Balzarini et al, J. Virol. 67: 5353-5359 (1993); HIV-1/Lys-138 ("Lys-138") was selected for resistance against TSAO-m^3T as described in Balzarini et al, Virology 192: 246-253 (1993) and Balzarini et al, Proc. Nat. Acad. Sci. USA 90: 6952-6956 (1993); HIV-1/181-Cys ("181-Cys") was selected for resistance against pyridinone L-697,661 as described in Balzarini et al, Virology 192: 246-253 (1993); and HIV-1/188-His ("188-His") was selected for resistance against HEPT as described in Balzarini et al, Mol. Pharmocol. 44: 694-701 (1993). 188-His was then further converted to HIV-1/188-Leu ("188-Leu") upon further passage in cell culture in the absence of the HEPT. HIV-1/101-Glu ("101-Glu") and HIV-1/190-Glu ("190-Glu") were selected for resistance against the thiocarboxanilide derivative designated as UC38 as described in Balzarini et al, Antiviral Research 27: 219-236 (1995). HIV-1/184-Ile ("184-Ile") was selected for resistance against the combination of 3TC and TSAO-m^3 T as described in Balzarini et al, Molecular Pharm. 49: 882-890 (1996). HIV-1/184-Val ("184-Val") was selected for resistance against 3TC as described in Balzarini et al, Molecular Pharm. 49: 882-890 (1996).
(§3) CEM cells were suspended at ≈300,000 cells per ml of culture medium and infected with approximately 100 CCID50 (CCID50 being the 50% cell culture infective dose) of HIV-1(IIIB) (designated as "WT" in Table 3) or one of the HIV-1 RT mutant strains described above. Then 100 μl of the infected cell suspensions was added to 200 μl microtiter plate wells containing 100 μl of appropriate serial (5-fold) dilutions of the test compounds. The inhibitiory effect of the test compounds on HIV-1 induced syncytium formation in CEM cells was examined microscopically on day 4 post infection. The 50% effective concentration (EC50) was defined as the test compound concentration that inhibits syncytium formation in the HIV-1-infected cell cultures by 50%.

HIV-1/190-Glu = assay: inhibition of syncytium formation in CEM cells, HIV-1 RT mutant 190-Glu; conditions: Human immunodeficiency virus 1, CCRF-CEM, 96 h, read-out: EC50 190-Glu
From the text: as §1, §2, §3

103-Ala = assay: inhibition of syncytium formation in CEM cells, HIV-1 RT mutant 103-Ala; conditions: Human immunodeficiency virus 1, CCRF-CEM, 96 h, read-out: EC50 103-Ala
138-Lys = assay: inhibition of syncytium formation in CEM cells, HIV-1 RT mutant 138-Lys; conditions: Human immunodeficiency virus 1, CCRF-CEM, 96 h, read-out: EC50 138-Lys
From the text: as §1, §2, §3

HIV-1/184-Val = assay: inhibition of syncytium formation in CEM cells, HIV-1 RT mutant 184-Val; conditions: Human immunodeficiency virus 1, CCRF-CEM, 96 h, read-out: EC50 184-Val
From the text: as §1, §2, §3

HIV-1/100-Ile = assay: inhibition of syncytium formation in CEM cells, HIV-1 RT mutant 100-Ile; conditions: Human immunodeficiency virus 1, CCRF-CEM, 96 h, read-out: EC50 100-Ile
From the text: as §1, §2, §3

HIV-1 (IIIB) = assay: inhibition of HIV-1(IIIB) (WT) induced syncytium formation in CEM cells
From the text: as §1, §3

HIV-1/188-His = assay: inhibition of syncytium formation in CEM cells, HIV-1 RT mutant 188-His; conditions: Human immunodeficiency virus 1, CCRF-CEM, 96 h, read-out: EC50 188-His
From the text: as §1, §2, §3

HIV-1/181-Cys = assay: inhibition of syncytium formation in CEM cells, HIV-1 RT mutant 181-Cys; conditions: Human immunodeficiency virus 1, CCRF-CEM, 96 h, read-out: EC50 181-Cys
From the text: as §1, §2, §3

HIV-1/101-Glu = assay: inhibition of syncytium formation in CEM cells, HIV-1 RT mutant 101-Glu; conditions: Human immunodeficiency virus 1, CCRF-CEM, 96 h, read-out: EC50 101-Glu
From the text: as §1, §2, §3

HIV-1/188-Leu = assay: inhibition of syncytium formation in CEM cells, HIV-1 RT mutant 188-Leu; conditions: Human immunodeficiency virus 1, CCRF-CEM, 96 h, read-out: EC50 188-Leu
From the text: as §1, §2, §3

HIV-1/106-Ala = assay: inhibition of syncytium formation in CEM cells, HIV-1 RT mutant 106-Ala; conditions: Human immunodeficiency virus 1, CCRF-CEM, 96 h, read-out: EC50 106-Ala
From the text: as §1, §2, §3

[1] = Human immunodeficiency virus 1, IIIB, CCRF-CEM, 96 h, Table 2, day 4 post infection, replicate values, read-out: EC50, Activity Against HIV-1 (IIIB)
[2] = Human immunodeficiency virus 1, IIIB, CCRF-CEM, 96 h, Table 3, HIV-1(IIIB), day 4 post infection, read-out: EC50 WT
[3] = Table 2, day 4 post infection, replicate values, read-out: EC50, Activity Against HIV-1 (IIIB)

Compound	EC50 (HIV-1/184-Ile) [µg/mL]	EC50 (HIV-1/190-Glu) [µg/mL]	EC50 (103-Ala) [µg/mL]	EC50 (138-Lys) [µg/mL]	EC50 (HIV-1/184-Val) [µg/mL]	EC50 (HIV-1/100-Ile) [µg/mL]	EC50 (HIV-1 (IIIB); [1]) [nM]	EC50 (HIV-1 (IIIB); [2]) [µg/mL]	EC50 (HIV-1 (IIIB); [3])	EC50 (HIV-1/188-His) [µg/mL]	EC50 (HIV-1/181-Cys) [µg/mL]	EC50 (HIV-1/101-Glu) [µg/mL]	EC50 (HIV-1/188-Leu) [µg/mL]	EC50 (HIV-1/106-Ala) [µg/mL]
Cc1occc1C(=S)Nc1ccc(Cl)c(COc2ccccc2Cl)c1 [Compound 6, N-3-((2-chlorophenoxy)methyl)-4-chlorophenyl-2-methyl-3-furancarbothioamide]	0.047	> 2	1.2 (≈ 3.06 µM)	0.025	0.018	0.23	58.6	0.0067	104 nM	0.053	0.09	0.11	–	–
Cc1occc1C(=S)Nc1ccc(Cl)c(COc2cccc(Cl)c2)c1 [Compound 7]	0.4	≥ 10	≥ 2	0.33	0.1	0.65	–	0.09	68.2 nM and 52.5 nM and 432 nM	0.95	0.44	2	–	–
Cc1ccccc1OCc1cc(NC(=S)c2ccoc2C)ccc1Cl [Compound 8]	0.065	≥ 2	2 (≈ 5.38 µM)	0.19	0.02	0.33	107	0.022	–	0.5	0.95	1.5	0.7	1
Cc1occc1C(=S)Nc1ccc(Cl)c(COc2ccc(F)cc2)c1 [Compound 11]	0.16	≥ 2	> 2	0.7	0.045	0.95	–	0.065	85.1 nM and 161 nM and 276 nM	> 2	0.14	≥ 2	≥ 2	1.1
CC(=O)OCc1ccccc1OCc1cc(NC(=S)c2ccoc2C)ccc1Cl [Compound 15]	1.2	≥ 2	> 2	> 2	0.5	> 2	–	0.49	–	> 2	> 2	> 2	> 2	> 2
Cc1occc1C(=S)Nc1ccc(Cl)c(COc2c(F)cccc2F)c1 [Compound 16]	0.011	> 2	0.6 (≈ 1.52 µM)	0.018	0.0036	0.08	28.6	0.0031	39.2 nM	0.52	0.03	0.069	0.95	0.03
Cc1occc1C(=S)Nc1ccc(Cl)c(COc2ccccc2F)c1 [Compound 18]	0.032	> 2	> 2	0.53	0.008	0.077	117	0.0053	111 nM	1.73	0.1	0.24	> 2	1.1
Cc1occc1C(=S)Nc1ccc(Cl)c(COc2ccccc2[N+](=O)[O-])c1 [Compound 19]	0.0045	> 2	0.52 (≈ 1.29 µM)	0.0075	0.0041	0.08	27.1	0.0023	39.3 nM	0.12	0.13	0.17	1.35	0.13
COc1ccccc1OCc1cc(NC(=S)c2ccoc2C)ccc1Cl [Compound 22]	0.025	> 2	2.73 (≈ 7.04 µM)	0.075	0.018	0.4	160	0.011	209 nM	0.85	0.41	0.75	> 2	1
Cc1occc1C(=S)Nc1ccc(Cl)c(COc2ccccc2CO)c1 [Compound 25]	1	> 2	> 2	> 2	0.25	> 2	–	0.55	3140 nM and 1090 nM and 1490 nM and 1150 nM and 1000 nM	> 2	> 2	> 2	> 2	> 2
Cc1occc1C(=S)Nc1ccc(Cl)c(COc2cccc([N+](=O)[O-])c2)c1 [Compound 27]	0.11	> 2	> 2	0.23	0.4	0.7	–	0.03	121 nM and 340 nM	> 2	0.5	0.55	> 2	1.57
Cc1occc1C(=S)Nc1ccc(Cl)c(COc2ccccc2C#N)c1 [Compound 30]	0.03	> 2	> 2	0.042	0.021	0.33	63.5	0.006	68.7 nM and 103 nM	0.35	0.65	0.63	0.85	0.7
COc1cccc(F)c1OCc1cc(NC(=S)c2ccoc2C)ccc1Cl [Compound 34]	0.0087	> 2	0.85 (≈ 2.09 µM)	0.02	0.005	0.16	–	0.0022	5.65 nM and 17.4 nM	0.5	0.1	0.12	0.53	0.1
Cc1ccc(Cl)c(OCc2cc(NC(=S)c3ccoc3C)ccc2Cl)c1 [Compound 37]	0.14	> 2	> 2	0.33	0.09	2.33	–	0.025	19.2 nM and 76.6 nM	0.33	> 2	1.4	0.62	> 2
Cc1occc1C(=S)Nc1ccc(Cl)c(COc2ccccc2Br)c1 [Compound 40]	0.04	> 2	> 2	0.09	0.018	1.73	–	0.02	35.3 nM and 46 nM and 16.8 nM	0.4	0.75	0.4	0.7	0.85
